Laboratory results taken from patent publication US10189773B2, “In-vivo gelling pharmaceutical pre-formulation” (MEDICUS BIOSCIENCES, LLC, priority 2010, dated 2019).

Test: Saturated solution of DDP or DCP in phosphate and borate buffers
Type: physicochemical
Details: 25° C.
Description: Samples containing DDP or DCP were protected from light as a precaution.

| Structure (SMILES) | final concentration of saturated solution (borate buffer (pH of 7.94)) [mg/mL] | final concentration of saturated solution (phosphate buffer) [mg/mL] |
| --- | --- | --- |
| N.N.O=C([O-])C1(C(=O)[O-])CCC1.[Pt+2] [DCP, cis-Diammine(1,1-cyclobutanedicarboxylato)platinum(II)] | 15.6 | 14.7 |
| N.N.[Cl][Pt][Cl] [DDP, cisdiamminedichloroplatinum(II)] | 1.3 | 1.3 |
